In PubChem BioAssay AID1259407 (Chemical Carcinogenesis Research Information System (CCRIS), 2018):
The source made the active and inactive calls. The rule behind the calls is not given here.

System: CCRIS mutagenicity, Ames/micronucleus/aberration tests
Assay: CCRIS mutagenicity studies
[1] = Test System: AMES SALMONELLA TYPHIMURIUM, Strain/Indicator: TA98, Metabolic Activation: NONE, Method: PREINCUBATION
[2] = Test System: AMES SALMONELLA TYPHIMURIUM, Strain/Indicator: TA100, Metabolic Activation: NONE, Method: PREINCUBATION
[3] = Test System: AMES SALMONELLA TYPHIMURIUM, Strain/Indicator: TA98, Metabolic Activation: NONE, Method: STANDARD PLATE
[4] = Test System: AMES SALMONELLA TYPHIMURIUM, Strain/Indicator: TA100, Metabolic Activation: NONE, Method: STANDARD PLATE

Question: How did the mutagenic call (Test System: AMES SALMONELLA TYPHIMURIUM, Strain/Indicator: TA97, Metabolic Activation: NONE) turn out when `Cc1ccc2n[nH]nc2c1` was run?
Answer: The mutagenic call was “inactive; negative”.

Question: What about the mutagenic call (Test System: AMES SALMONELLA TYPHIMURIUM, Strain/Indicator: TA97, Metabolic Activation: RAT, LIVER, S-9, AROCLOR 1254) of the same compound?
Answer: Its mutagenic call is “inactive; negative”.

Question: What about the mutagenic call (Test System: AMES SALMONELLA TYPHIMURIUM, Strain/Indicator: TA98, Metabolic Activation: NONE) of the same compound?
Answer: The mutagenic call was “inactive; negative”.

Question: What about the mutagenic call (Test System: AMES SALMONELLA TYPHIMURIUM, Strain/Indicator: TA98, Metabolic Activation: RAT, LIVER, S-9, AROCLOR 1254) of the same compound?
Answer: The mutagenic call was “inactive; negative”.

Question: What about the mutagenic call (Test System: AMES SALMONELLA TYPHIMURIUM, Strain/Indicator: TA100, Metabolic Activation: NONE) of the same compound?
Answer: Its mutagenic call is “inactive; negative”.

Question: And the mutagenic call (Test System: AMES SALMONELLA TYPHIMURIUM, Strain/Indicator: TA100, Metabolic Activation: RAT, LIVER, S-9, AROCLOR 1254)?
Answer: The mutagenic call was “inactive; negative”.

Question: And the mutagenic call (Test System: AMES SALMONELLA TYPHIMURIUM, Strain/Indicator: TA102, Metabolic Activation: NONE)?
Answer: The mutagenic call was “inactive; negative”.

Question: And the mutagenic call (Test System: AMES SALMONELLA TYPHIMURIUM, Strain/Indicator: TA102, Metabolic Activation: RAT, LIVER, S-9, AROCLOR 1254)?
Answer: The mutagenic call was “inactive; negative”.

Question: For `COc1ccc(C=O)cc1`, which mutagenic call (Test System: AMES SALMONELLA TYPHIMURIUM, Strain/Indicator: TA97, Metabolic Activation: NONE, Method: PREINCUBATION) is on record?
Answer: The mutagenic call was “inactive; negative”.

Question: What about the mutagenic call (Test System: AMES SALMONELLA TYPHIMURIUM, Strain/Indicator: TA97, Metabolic Activation: RAT, LIVER, S-9, AROCLOR 1254, Method: PREINCUBATION) of the same compound?
Answer: Its mutagenic call is “inactive; negative”.

Question: What about the mutagenic call [1] of the same compound?
Answer: Its mutagenic call is “inactive; negative”.

Question: And the mutagenic call (Test System: AMES SALMONELLA TYPHIMURIUM, Strain/Indicator: TA98, Metabolic Activation: RAT LIVER S-9, PHENOBARBITAL AND BETA-NAPHTHOFLAVONE, Method: PREINCUBATION)?
Answer: Its mutagenic call is “inactive; negative”.

Question: And the mutagenic call [2]?
Answer: Its mutagenic call is “inactive; negative”.

Question: And the mutagenic call (Test System: AMES SALMONELLA TYPHIMURIUM, Strain/Indicator: TA100, Metabolic Activation: RAT LIVER S-9, PHENOBARBITAL AND BETA-NAPHTHOFLAVONE, Method: PREINCUBATION)?
Answer: Its mutagenic call is “inactive; negative”.

Question: And the mutagenic call (Test System: AMES SALMONELLA TYPHIMURIUM, Strain/Indicator: TA102, Metabolic Activation: NONE, Method: PREINCUBATION)?
Answer: The mutagenic call was “inactive; negative”.

Question: And the mutagenic call (Test System: AMES SALMONELLA TYPHIMURIUM, Strain/Indicator: TA102, Metabolic Activation: RAT, LIVER, S-9, AROCLOR 1254, Method: PREINCUBATION)?
Answer: Its mutagenic call is “inactive; negative”.

Question: And the mutagenic call (Test System: AMES SALMONELLA TYPHIMURIUM, Strain/Indicator: TA1535, Metabolic Activation: NONE, Method: PREINCUBATION)?
Answer: The mutagenic call was “inactive; negative”.

Question: And the mutagenic call (Test System: AMES SALMONELLA TYPHIMURIUM, Strain/Indicator: TA1535, Metabolic Activation: RAT LIVER S-9, PHENOBARBITAL AND BETA-NAPHTHOFLAVONE, Method: PREINCUBATION)?
Answer: Its mutagenic call is “inactive; negative”.

Question: What about the mutagenic call (Test System: AMES SALMONELLA TYPHIMURIUM, Strain/Indicator: TA1537, Metabolic Activation: NONE, Method: PREINCUBATION) of the same compound?
Answer: Its mutagenic call is “inactive; negative”.

Question: What about the mutagenic call (Test System: AMES SALMONELLA TYPHIMURIUM, Strain/Indicator: TA1537, Metabolic Activation: RAT LIVER S-9, PHENOBARBITAL AND BETA-NAPHTHOFLAVONE, Method: PREINCUBATION) of the same compound?
Answer: The mutagenic call was “inactive; negative”.

Question: What about the mutagenic call (Test System: AMES SALMONELLA TYPHIMURIUM, Strain/Indicator: TA1538, Metabolic Activation: NONE, Method: PREINCUBATION) of the same compound?
Answer: Its mutagenic call is “inactive; negative”.

Question: What about the mutagenic call (Test System: AMES SALMONELLA TYPHIMURIUM, Strain/Indicator: TA1538, Metabolic Activation: RAT LIVER S-9, PHENOBARBITAL AND BETA-NAPHTHOFLAVONE, Method: PREINCUBATION) of the same compound?
Answer: Its mutagenic call is “inactive; negative”.

Question: What about the mutagenic call (Test System: E. COLI, Strain/Indicator: WP2UVRA, Metabolic Activation: NONE, Method: PREINCUBATION) of the same compound?
Answer: Its mutagenic call is “inactive; negative”.

Question: And the mutagenic call (Test System: E. COLI, Strain/Indicator: WP2UVRA, Metabolic Activation: RAT LIVER S-9, PHENOBARBITAL AND BETA-NAPHTHOFLAVONE, Method: PREINCUBATION)?
Answer: Its mutagenic call is “inactive; negative”.

Question: What about the mutagenic call (Test System: MOUSE LYMPHOMA, Strain/Indicator: L5178Y (TK+/TK-), Metabolic Activation: NONE, Method: SUSPENSION/PLATE) of the same compound?
Answer: Its mutagenic call is “active; positive”.

Question: What about the mutagenic call (Test System: MOUSE LYMPHOMA, Strain/Indicator: L5178Y (TK+/TK-), Metabolic Activation: RAT, LIVER, S-9, AROCLOR 1254, Method: SUSPENSION/PLATE) of the same compound?
Answer: Its mutagenic call is “active; positive. reevaluation of results: positive”.

Question: And the mutagenic call (Test System: Mouse lymphoma, Strain/Indicator: L5178Y (tk+/tk-), Metabolic Activation: None, Method: Suspension/plate)?
Answer: The mutagenic call was “inactive; negative”.

Question: `COC(=O)Nc1nc2ccc(C(=O)c3ccccc3)cc2[nH]1` was tested. Which mutagenic call [3] did it give?
Answer: Its mutagenic call is “inactive; negative”.

Question: What about the mutagenic call (Test System: AMES SALMONELLA TYPHIMURIUM, Strain/Indicator: TA98, Metabolic Activation: RAT, LIVER, S-9, AROCLOR 1254, Method: STANDARD PLATE) of the same compound?
Answer: Its mutagenic call is “active; positive”.

Question: What about the mutagenic call [4] of the same compound?
Answer: The mutagenic call was “inactive; negative”.

Question: Which mutagenic call (Test System: AMES SALMONELLA TYPHIMURIUM, Strain/Indicator: TA98, Metabolic Activation: NONE, Method: SUSPENSION/PLATE) does the source give for `Cc1ccc(N)cc1[N+](=O)[O-]` here?
Answer: The mutagenic call was “inactive; negative”.

Question: What about the mutagenic call (Test System: AMES SALMONELLA TYPHIMURIUM, Strain/Indicator: TA98, Metabolic Activation: RAT, LIVER, S-9, KANECHLOR 500, Method: PREINCUBATION) of the same compound?
Answer: The mutagenic call was “active; positive”.

Question: And the mutagenic call (Test System: AMES SALMONELLA TYPHIMURIUM, Strain/Indicator: TA98, Metabolic Activation: RAT, LIVER, S-9, PCB, Method: PREINCUBATION)?
Answer: Its mutagenic call is “inactive; negative”.

Question: What about the mutagenic call (Test System: AMES SALMONELLA TYPHIMURIUM, Strain/Indicator: TA98, Metabolic Activation: RAT, LIVER, S-9, PHENOBARBITAL AND 5,6-BENZOFLAVONE, Method: SUSPENSION/PLATE) of the same compound?
Answer: Its mutagenic call is “inactive; negative”.

Question: What about the mutagenic call [2] of the same compound?
Answer: Its mutagenic call is “active; positive”.

Question: And the mutagenic call (Test System: AMES SALMONELLA TYPHIMURIUM, Strain/Indicator: TA100, Metabolic Activation: NONE, Method: SUSPENSION/PLATE)?
Answer: The mutagenic call was “inactive; negative”.

Question: And the mutagenic call (Test System: AMES SALMONELLA TYPHIMURIUM, Strain/Indicator: TA100, Metabolic Activation: RAT, LIVER, S-9, KANECHLOR 500, Method: PREINCUBATION)?
Answer: The mutagenic call was “active; positive”.

Question: What about the mutagenic call (Test System: AMES SALMONELLA TYPHIMURIUM, Strain/Indicator: TA100, Metabolic Activation: RAT, LIVER, S-9, PHENOBARBITAL AND 5,6-BENZOFLAVONE, Method: SUSPENSION/PLATE) of the same compound?
Answer: The mutagenic call was “inactive; negative”.

Question: What does the source list for `O=[N+]([O-])c1cc2ccccc2c2ccccc12`?
Answer: mutagenic call (Test System: AMES SALMONELLA TYPHIMURIUM, Strain/Indicator: TA98(1,8-DNP6), Metabolic Activation: NONE, Method: STANDARD PLATE): active; positive; mutagenic call (Test System: AMES SALMONELLA TYPHIMURIUM, Strain/Indicator: TA98(NR), Metabolic Activation: NONE, Method: STANDARD PLATE): active; positive; mutagenic call [1]: active; positive; mutagenic call [3]: active; positive; mutagenic call (Test System: AMES SALMONELLA TYPHIMURIUM, Strain/Indicator: TA98, Metabolic Activation: RAT, LIVER, S-9, PCB (10%), Method: PREINCUBATION): inactive; negative; mutagenic call [4]: active; positive; mutagenic call (Test System: AMES SALMONELLA TYPHIMURIUM, Strain/Indicator: TA7001, Metabolic Activation: NONE, Method: PREINCUBATION): active; positive; mutagenic call (Test System: AMES SALMONELLA TYPHIMURIUM, Strain/Indicator: TA7002, Metabolic Activation: NONE, Method: PREINCUBATION): active; positive; mutagenic call (Test System: AMES SALMONELLA TYPHIMURIUM, Strain/Indicator: TA7003, Metabolic Activation: NONE, Method: PREINCUBATION): inactive; negative; mutagenic call (Test System: AMES SALMONELLA TYPHIMURIUM, Strain/Indicator: TA7004, Metabolic Activation: NONE, Method: PREINCUBATION): active; positive; mutagenic call (Test System: AMES SALMONELLA TYPHIMURIUM, Strain/Indicator: TA7005, Metabolic Activation: NONE, Method: PREINCUBATION): active; positive; mutagenic call (Test System: AMES SALMONELLA TYPHIMURIUM, Strain/Indicator: TA7006, Metabolic Activation: NONE, Method: PREINCUBATION): active; positive; mutagenic call (Test System: AMES SALMONELLA TYPHIMURIUM, Strain/Indicator: YG1021, Metabolic Activation: NONE, Method: STANDARD PLATE): active; positive; mutagenic call (Test System: AMES SALMONELLA TYPHIMURIUM, Strain/Indicator: YG1024, Metabolic Activation: NONE, Method: STANDARD PLATE): active; positive; mutagenic call (Test System: AMES SALMONELLA TYPHIMURIUM, Strain/Indicator: YG1026, Metabolic Activation: NONE, Method: STANDARD PLATE): active; positive; mutagenic call (Test System: AMES SALMONELLA TYPHIMURIUM, Strain/Indicator: YG1029, Metabolic Activation: NONE, Method: STANDARD PLATE): active; positive
